Data on 29 molecules can be found in patent US9487510B2, “Substituted heterocyclic acetamides as kappa opioid receptor (KOR) agonists” (Dr. Reddy's Laboratories Ltd., priority 2012, dated 2016).

pEC50: −log10 of the molar value. Where a name gives a salt, the structure may show the parent alone. Some results are limits rather than exact numbers.

human KOR receptor, sequence (P41145 whole entry): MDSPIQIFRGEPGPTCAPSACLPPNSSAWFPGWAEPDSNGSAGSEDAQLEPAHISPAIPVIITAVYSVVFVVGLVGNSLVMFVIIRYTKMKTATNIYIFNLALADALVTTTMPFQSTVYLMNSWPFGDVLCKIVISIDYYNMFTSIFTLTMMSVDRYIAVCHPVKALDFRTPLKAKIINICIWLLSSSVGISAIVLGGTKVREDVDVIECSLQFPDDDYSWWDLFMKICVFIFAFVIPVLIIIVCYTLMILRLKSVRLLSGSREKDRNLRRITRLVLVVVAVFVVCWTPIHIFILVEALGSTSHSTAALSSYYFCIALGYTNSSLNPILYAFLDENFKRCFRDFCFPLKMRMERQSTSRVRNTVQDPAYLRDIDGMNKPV

The assay addresses human KOR receptor (Homo sapiens, UniProt P41145). The experiment in a line: IP-One HTRF assay, potency of KOR agonists, dose-response in transiently transfected COS-7 cells. The assay is classed as cell-based.
As for `CN(C(=O)Cc1ccc2oc(=O)n(Cc3ccc(C#N)cc3)c2c1)[C@H](CN1CC[C@H](O)C1)c1ccccc1` [Example 75, 2-(3-(4-cyanobenzyl)-2-oxo-2,3-dihydrobenzo[d]oxazol-5-yl)-N-((S)-2-((S)-3-hydroxypyrrolidin-1-yl)-1-phenylethyl)-N-methylacetamide], the pEC50 is ≥ 7.30.

`CN(C(=O)Cc1ccc2c(c1)NS(=O)(=O)C2)[C@H](CN1CC[C@H](O)C1)c1cccc(-c2nn[nH]n2)c1` [Example 79, N-((S)-1-(3-(1H-tetrazol-5-yl)phenyl)-2-((S)-3-hydroxypyrrolidin-1-yl)ethyl)-2-(2,2-dioxido-1,3-dihydrobenzo[c]isothiazol-6-yl)-N-methylacetamide]: the pEC50 was ≥ 7.30.

For `CN(C(=O)Cc1ccc2c(c1)N(C)S(=O)(=O)C2)[C@H](CN1CC[C@H](O)C1)c1cccc(OCC(=O)O)c1` [Example 80, 2-(3-((S)-2-((S)-3-hydroxypyrrolidin-1-yl)-1-(N-methyl-2-(1-methyl-2,2-dioxido-1,3-dihydrobenzo[c]isothiazol-6-yl)acetamido)ethyl)phenoxy)acetic acid], the pEC50 was ≥ 7.30.

For the molecule `CC(C)(C)OC(=O)Cn1c(=O)oc2ccc(CC(=O)N[C@H](CN3CCCC3)c3ccccc3)cc21` [Example 82, (S)-tert-butyl-2-(2-oxo-5-(2-oxo-2-(1-phenyl-2-(pyrrolidin-1-yl)ethylamino)ethyl)benzo[d]oxazol-3(2H)-yl)acetate], the pEC50 is ≥ 7.30.

Consider `O=C(O)Cn1c(=O)oc2ccc(CC(=O)N[C@H](CN3CCCC3)c3ccccc3)cc21` [Example 83, (S)-2-(2-oxo-5-(2-oxo-2-(1-phenyl-2-(pyrrolidin-1-yl)ethylamino)ethyl)benzo[d]oxazol-3(2H)-yl)acetic acid hydrochloride], for which the pEC50 is ≥ 7.30.

Regarding `O=C(O)COc1cccc([C@@H](CN2CCCC2)NC(=O)Cc2ccc3oc(=O)[nH]c3c2)c1` [Example 85, (S)-2-(3-(1-(2-(2-oxo-2,3-dihydrobenzo[d]oxazol-5-yl)acetamido)-2-(pyrrolidin-1-yl)ethyl)phenoxy)acetic acid hydrochloride], the pEC50 was ≥ 7.30.

For the molecule `CN(C(=O)Cc1ccc2oc(=O)n(CC(=O)O)c2c1)[C@H](CN1CC[C@H](O)C1)c1ccccc1` [Example 86], the pEC50 was ≥ 7.30.

Regarding `CN(C(=O)Cc1ccc2oc(=O)[nH]c2c1)C(CN1CC[C@H](O)C1)c1cccc(OCC(=O)O)c1` (stereo partly drawn) [Example 94, (S)-2-(3-(2-(3-hydroxypyrrolidin-1-yl)-1-(N-methyl-2-(2-oxo-2,3-dihydrobenzo[d]oxazol-5-yl)acetamido)ethyl)phenoxy)acetic acid triflouro acetate], the pEC50 was ≥ 7.30.

As for `CN(C(=O)Cc1ccc2c(c1)NC(=O)C2)C(CN1CC[C@H](O)C1)c1cccc(OCC(=O)O)c1` (stereo partly drawn) [Example 95, (S)-2-(3-(2-(3-hydroxypyrrolidin-1-yl)-1-(N-methyl-2-(2-oxoindolin-6-yl)acetamido)ethyl)phenoxy) acetic acid hydrochloride], the pEC50 was ≥ 7.30.

As to `COC(=O)c1ccc(Cn2c(=O)oc3ccc(CC(=O)N(C)[C@H](CN4CC[C@H](O)C4)c4ccccc4)cc32)cc1` [Example 98, Methyl 4-((5-(2-(((S)-2-((S)-3-hydroxypyrrolidin-1-yl)-1-phenylethyl)(methyl)amino)-2-oxoethyl)-2-oxobenzo[d]oxazol-3(2H)-yl)methyl)benzoate], the pEC50 was ≥ 7.30.

For `CN(C(=O)Cc1ccc2c(c1)NC(=O)C2)[C@H](CN1CC[C@H](O)C1)c1cccc(OCc2nn[nH]n2)c1` [Example 112, N-((S)-1-(3-((2H-tetrazol-5-yl)methoxy)phenyl)-2-((S)-3-hydroxypyrrolidin-1-yl)ethyl)-N-methyl-2-(2-oxoindolin-6-yl)acetamide], the pEC50 is 7.00 to 7.29.

As to `O=C1COc2ccc(CC(=O)N[C@H](CN3CCCC3)c3ccccc3)cc2N1` [Example 114, (S)-2-(3-oxo-3,4-dihydro-2H-benzo[b][1,4]oxazin-6-yl)-N-(1-phenyl-2-(pyrrolidin-1-yl)ethyl)acetamide], the pEC50 was ≥ 7.30.

As for `O=C(Cc1ccc2sc(=S)[nH]c2c1)N[C@H](CN1CC[C@H](O)C1)c1ccccc1` [Example 118, N-((S)-2-((S)-3-hydroxypyrrolidin-1-yl)-1-phenylethyl)-2-(2-thioxo-2,3-dihydrobenzo[d]thiazol-5-yl)acetamide], the negative logarithm of the EC50 (pEC50) was ≥ 7.30.

Take `O=C1CS(=O)(=O)c2ccc(CC(=O)N[C@H](CN3CCCC3)c3ccccc3)cc2N1` [Example 121, (S)-2-(1,1-dioxido-3-oxo-3,4-dihydro-2H-benzo[b][1,4]thiazin-6-yl)-N-(1-phenyl-2-(pyrrolidin-1-yl)ethyl)acetamide]: the pEC50 is ≥ 7.30.

With `O=C1CS(=O)(=O)c2ccc(CC(=O)N[C@H](CN3CC[C@H](O)C3)c3ccccc3)cc2N1` [Example 122, 2-(1,1-dioxido-3-oxo-3,4-dihydro-2H-benzo[b][1,4]thiazin-6-yl)-N-((S)-2-((S)-3-hydroxypyrrolidin-1-yl)-1-phenylethyl)acetamide], the pEC50 is ≥ 7.30.

Turning to `CN(C(=O)Cc1ccc2c(c1)NC(=O)CS2(=O)=O)[C@H](CN1CC[C@H](O)C1)c1cccc(C(F)(F)F)c1` [Example 123, 2-(1,1-dioxido-3-oxo-3,4-dihydro-2H-benzo[b][1,4]thiazin-6-yl)-N-((S)-2-((S)-3-hydroxypyrrolidin-1-yl)-1-(3-(trifluoromethyl)phenyl)ethyl)-N-methylacetamide], the pEC50 was ≥ 7.30.

Consider `CN(C(=O)Cc1ccc2c(c1)NC(=O)CS2(=O)=O)[C@H](CN1CC[C@H](O)C1)c1cccc(F)c1` [Example 124, 2-(1,1-dioxido-3-oxo-3,4-dihydro-2H-benzo[b][1,4]thiazin-6-yl)-N-((S)-1-(3-fluorophenyl)-2-((S)-3-hydroxypyrrolidin-1-yl)ethyl)-N-methylacetamide], for which the pEC50 is ≥ 7.30.

Regarding `CN(C(=O)Cc1ccc2c(c1)NC(=O)CS2(=O)=O)[C@H](CN1CC[C@H](O)C1)C1CCCCC1` [Example 125, N-((S)-1-cyclohexyl-2-((S)-3-hydroxypyrrolidin-1-yl)ethyl)-2-(1,1-dioxido-3-oxo-3,4-dihydro-2H-benzo [b][1,4]thiazin-6-yl)-N-methylacetamide], the pEC50 was ≥ 7.30.

Take `COc1cccc([C@@H](CN2CC[C@H](O)C2)N(C)C(=O)Cc2ccc3c(c2)NC(=O)CS3(=O)=O)c1` [Example 126, 2-(1,1-dioxido-3-oxo-3,4-dihydro-2H-benzo[b][1,4]thiazin-6-yl)-N-((S)-2-((S)-3-hydroxypyrrolidin-1-yl)-1-(3-methoxyphenyl)ethyl)-N-methylacetamide]: the pEC50 is ≥ 7.30.

As to `O=C1CSc2ccc(CC(=O)N[C@H](CN3CCCC3)c3ccccc3)cc2N1` [Example 127, (S)-2-(3-oxo-3,4-dihydro-2H-benzo [b][1,4]thiazin-6-yl)-N-(1-phenyl-2-(pyrrolidin-1-yl)ethyl)acetamide], the pEC50 was ≥ 7.30.

Take `O=C1CSc2ccc(CC(=O)N[C@H](CN3CC[C@H](O)C3)c3ccccc3)cc2N1` [Example 128, N-((S)-2-((S)-3-hydroxypyrrolidin-1-yl)-1-phenylethyl)-2-(3-oxo-3,4-dihydro-2H-benzo[b][1,4]thiazin-6-yl)acetamide]: the pEC50 is ≥ 7.30.

For `CN(C(=O)Cc1ccc2c(c1)NC(=O)CS2)[C@H](CN1CCCC1)c1ccccc1` [Example 129, (S)-N-methyl-2-(3-oxo-3,4-dihydro-2H-benzo [b][1,4]thiazin-6-yl)-N-(1-phenyl-2-(pyrrolidin-1-yl)ethyl)acetamide], the pEC50 was ≥ 7.30.

`CN(C(=O)Cc1ccc2c(c1)NC(=O)CS2)C(CN1CC[C@H](O)C1)C1CCOCC1` (stereo partly drawn) [Example 130, N-(2-((S)-3-hydroxypyrrolidin-1-yl)-1-(tetrahydro-2H-pyran-4-yl)ethyl)-N-methyl-2(3-oxo-3,4-dihydro-2H-benzo[b][1,4]thiazin-6-yl)acetamide]: the pEC50 is ≥ 7.30.

As to `COc1cccc([C@@H](CN2CC[C@H](O)C2)N(C)C(=O)Cc2ccc3c(c2)NC(=O)CS3)c1` [Example 131, N-((S)-2-((S)-3-hydroxypyrrolidin-1-yl)-1-(3-methoxyphenyl)ethyl)-N-methyl-2-(3-oxo-3,4-dihydro-2H-benzo[b][1,4]thiazin-6-yl)acetamide], the pEC50 is ≥ 7.30.

Take `CN(C(=O)Cc1ccc2c(c1)NC(=O)CS2)[C@H](CN1CC[C@H](O)C1)c1cccc(C(F)(F)F)c1` [Example 132, N-((S)-2-((S)-3-hydroxypyrrolidin-1-yl)-1-(3-(trifluoromethyl)phenyl)ethyl)-N-methyl-2-(3-oxo-3,4-dihydro-2H-benzo[b][1,4]thiazin-6-yl)acetamide]: the pEC50 is ≥ 7.30.

`CN(C(=O)Cc1ccc2c(c1)NC(=O)CS2)[C@H](CN1CC[C@H](O)C1)c1cccc(F)c1` [Example 133, N-((S)-1-(3-fluorophenyl)-2-((S)-3-hydroxypyrrolidin-1-yl)ethyl)-N-methyl-2-(3-oxo-3,4-dihydro-2H-benzo[b][1,4]thiazin-6-yl)acetamide]: the pEC50 was ≥ 7.30.

Turning to `CN(C(=O)Cc1ccc2c(c1)NC(=O)CS2)[C@H](CN1CC[C@H](O)C1)c1cccc(OC(F)(F)F)c1` [Example 134, N-((S)-2-((S)-3-hydroxypyrrolidin-1-yl)-1-(3-(trifluoromethoxy)phenyl)ethyl)-N-methyl-2-(3-oxo-3,4-dihydro-2H-benzo[b][1,4]thiazin-6-yl)acetamide], the pEC50 was ≥ 7.30.

Regarding `CN(C(=O)Cc1ccc2c(c1)N(Cc1ccccc1)S(=O)(=O)C2)[C@H](CN1CC[C@H](O)C1)c1ccccc1` [Example 135, 2-(1-benzyl-2,2-dioxido-1,3-dihydrobenzo[c]isothiazol-6-yl)-N-((S)-2-((S)-3-hydroxypyrrolidin-1-yl)-1-phenylethyl)-N-methylacetamide], the pEC50 is ≥ 7.30.

Consider `CCCN(C(=O)Cc1ccc2c(c1)NC(=O)CS2(=O)=O)[C@H](CN1CC[C@H](O)C1)c1cccc(OC(F)(F)F)c1` [Example 137, 2-(1,1-dioxido-3-oxo-3,4-dihydro-2H-benzo[b][1,4]thiazin-6-yl)-N-((S)-2-((S)-3-hydroxypyrrolidin-1-yl)-1-(3-(trifluoromethoxy)phenyl)ethyl)-N-propylacetamide], for which the pEC50 was ≥ 7.30.

One may read the pEC50 as −log10 of the EC50, conventionally taken in molar units. The low end stands for a large EC50, the high end for a small EC50.
